Several values for one entry are separate records, joined by “and”; a condition that tells them apart may be missing. Identical values can stand only once. Inconclusive results and toxic doses are left out.
Test system: P388 leukemia ip, CD2F1 mice, survival T/C
Test: NCI In Vivo Anticancer Drug Screen. Data for tumor model P388 Leukemia (intraperitoneal) in CD2F1 (CDF1) mice
Conditions: endpoint: median survival time, higher = longer survival
Outline: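 Mice carrying the transplanted tumor received test compound or vehicle. Survival was recorded in each group, and the value is the treated-group measurement divided by that of the vehicle-treated control group.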

[1] = dose: 50.0 mg/kg/injection, schedule: Q01DX009 (ip), vehicle: saline with Tween-80
[2] = dose: 100.0 mg/kg/injection, schedule: Q01DX009 (ip), vehicle: saline with Tween-80
[3] = dose: 200.0 mg/kg/injection, schedule: Q01DX009 (ip), vehicle: saline with Tween-80
[4] = dose: 50.0 mg/kg/injection, schedule: Q04DX002 (ip), vehicle: saline with Tween-80
[5] = dose: 100.0 mg/kg/injection, schedule: Q04DX002 (ip), vehicle: saline with Tween-80
[6] = dose: 100.0 mg/kg/injection, schedule: Q04DX003 (ip), vehicle: saline with Tween-80
[7] = dose: 200.0 mg/kg/injection, schedule: Q04DX002 (ip), vehicle: saline with Tween-80
[8] = dose: 25.0 mg/kg/injection, schedule: Q01DX009 (ip), vehicle: saline with Tween-80
[9] = dose: 50.0 mg/kg/injection, schedule: Q01DX009 (ip), vehicle: Klucel (hydroxypropylcellulose) (HPC)
[10] = dose: 60.0 mg/kg/injection, schedule: Q01DX005 (ip), vehicle: saline with Tween-80
[11] = dose: 120.0 mg/kg/injection, schedule: Q01DX005 (ip), vehicle: saline with Tween-80
[12] = dose: 240.0 mg/kg/injection, schedule: Q01DX005 (ip), vehicle: saline with Tween-80

C[N+](C)([O-])CCCNc1c2ccccc2nc2cccc([N+](=O)[O-])c12 was tested, and the T/C (dose: 0.79 mg/kg/injection, schedule: Q01DX009 (ip), vehicle: saline) was 108 % of control, the T/C (dose: 1.56 mg/kg/injection, schedule: Q01DX009 (ip), vehicle: saline) was 110 % of control and the T/C (dose: 3.12 mg/kg/injection, schedule: Q01DX009 (ip), vehicle: saline) was 117 % of control and 118 % of control.
With CSc1cccc(NC(=O)N2CCCCC2C)c1 (stereo unspecified) the T/C [1] was 100 % of control, the T/C [2] was 92 % of control and the T/C [3] was 100 % of control.
In the case of CCC1C(c2c[nH]c3ccccc23)N(C=O)CCC1(O)C(C)=O (stereo unspecified), the T/C (dose: 4.38 mg/kg/injection, schedule: Q01DX005 (ip), vehicle: Klucel (hydroxypropylcellulose) (HPC)) was 99 % of control, the T/C (dose: 8.75 mg/kg/injection, schedule: Q01DX005 (ip), vehicle: Klucel (hydroxypropylcellulose) (HPC)) was 99 % of control and the T/C (dose: 17.5 mg/kg/injection, schedule: Q01DX005 (ip), vehicle: Klucel (hydroxypropylcellulose) (HPC)) was 96 % of control.
NC(=O)CN1CCN(c2ccnc3cc(Cl)ccc23)CC1 was tested, and the T/C (dose: 25.0 mg/kg/injection, schedule: Q04DX002 (ip), vehicle: saline with Tween-80) was 101 % of control, the T/C [4] was 99 % of control and the T/C [5] was 99 % of control and 103 % of control.
CCN(C(=O)COc1ccc(Cl)cc1Cl)c1ccccc1C was tested, and the T/C [6] was 100 % of control, the T/C (dose: 200.0 mg/kg/injection, schedule: Q04DX003 (ip), vehicle: saline with Tween-80) was 100 % of control and the T/C (dose: 400.0 mg/kg/injection, schedule: Q04DX003 (ip), vehicle: saline with Tween-80) was 100 % of control.
In the case of O=C1c2cccc([N+](=O)[O-])c2C(=O)N1CC[P+](c1ccccc1)(c1ccccc1)c1ccccc1, the T/C (dose: 0.78 mg/kg/injection, schedule: Q01DX009 (ip), vehicle: water) was 97 % of control, the T/C (dose: 1.56 mg/kg/injection, schedule: Q01DX009 (ip), vehicle: water) was 100 % of control and the T/C (dose: 3.13 mg/kg/injection, schedule: Q01DX009 (ip), vehicle: water) was 94 % of control. The T/C (dose: 6.25 mg/kg/injection, schedule: Q01DX009 (ip), vehicle: water) was 97 % of control, the T/C (dose: 12.5 mg/kg/injection, schedule: Q01DX009 (ip), vehicle: water) was 95 % of control and the T/C (dose: 25.0 mg/kg/injection, schedule: Q01DX009 (ip), vehicle: water) was 100 % of control. For the same compound, the T/C (dose: 50.0 mg/kg/injection, schedule: Q01DX009 (ip), vehicle: water) was 109 % of control and the T/C (dose: 100.0 mg/kg/injection, schedule: Q01DX009 (ip), vehicle: water) was 107 % of control.
In the case of O=C(O)C[CH2][Sn](=[O])[CH2]CC(=O)O, the T/C (dose: 50.0 mg/kg/injection, schedule: Q01DX005 (ip), vehicle: Klucel (hydroxypropylcellulose) (HPC)) was 101 % of control, the T/C (dose: 100.0 mg/kg/injection, schedule: Q01DX005 (ip), vehicle: Klucel (hydroxypropylcellulose) (HPC)) was 101 % of control and the T/C (dose: 200.0 mg/kg/injection, schedule: Q01DX005 (ip), vehicle: Klucel (hydroxypropylcellulose) (HPC)) was 102 % of control.
For Clc1ccc2c(ccc3cccnc32)n1, the T/C [4] was 100 % of control, the T/C [5] was 97 % of control and the T/C [7] was 94 % of control.
With CC(=Nc1ccccc1)C1=C(O)C(Cc2ccccc2)NC1=O (stereo unspecified) the T/C [8] was 106 % of control.
In the case of CC1(C)COC(c2c(F)cccc2Cl)=N1, the T/C (dose: 50.0 mg/kg/injection, schedule: Q01DX005 (ip), vehicle: saline with Tween-80) was 100 % of control, the T/C (dose: 100.0 mg/kg/injection, schedule: Q01DX005 (ip), vehicle: saline with Tween-80) was 100 % of control and the T/C (dose: 200.0 mg/kg/injection, schedule: Q01DX005 (ip), vehicle: saline with Tween-80) was 98 % of control.
For O=C=Nc1ccc(N=Nc2ccccc2)cc1, the T/C (dose: 12.5 mg/kg/injection, schedule: Q04DX003 (ip), vehicle: saline with Tween-80) was 97 % of control, the T/C (dose: 25.0 mg/kg/injection, schedule: Q04DX003 (ip), vehicle: saline with Tween-80) was 90 % of control and the T/C (dose: 50.0 mg/kg/injection, schedule: Q04DX003 (ip), vehicle: saline with Tween-80) was 90 % of control. The T/C [6] was 90 % of control and 92 % of control, the T/C (dose: 150.0 mg/kg/injection, schedule: Q04DX003 (ip), vehicle: saline with Tween-80) was 92 % of control and the T/C (dose: 225.0 mg/kg/injection, schedule: Q04DX003 (ip), vehicle: saline with Tween-80) was 100 % of control. For the same compound, the T/C (dose: 335.0 mg/kg/injection, schedule: Q04DX003 (ip), vehicle: saline with Tween-80) was 93 % of control.
For C=CCC1CCC(=O)NC1=O (stereo unspecified), the T/C [4] was 102 % of control, the T/C [5] was 102 % of control and the T/C [7] was 100 % of control. For the same compound, the T/C (dose: 400.0 mg/kg/injection, schedule: Q04DX002 (ip), vehicle: saline with Tween-80) was 112 % of control.
For COc1cccc2c1C(=O)c1c(O)c3c(c(O)c1C2=O)C[C@@](O)(C(=O)CO)C[C@@H]3OC1CC(NC=O)C(O)C(C)O1 (stereo partly specified), the T/C (dose: 1.56 mg/kg/injection, schedule: Q01DX009 (ip), vehicle: Klucel (hydroxypropylcellulose) (HPC)) was 95 % of control, the T/C (dose: 7.4 mg/kg/injection, schedule: Q01DX009 (ip), vehicle: other) was 163 % of control and the T/C (dose: 11.0 mg/kg/injection, schedule: Q01DX009 (ip), vehicle: other) was 157 % of control. For the same compound, the T/C (dose: 16.5 mg/kg/injection, schedule: Q01DX009 (ip), vehicle: other) was 163 % of control, the T/C (dose: 25.0 mg/kg/injection, schedule: Q01DX009 (ip), vehicle: other) was 192 % of control and the T/C (dose: 37.5 mg/kg/injection, schedule: Q01DX009 (ip), vehicle: other) was 201 % of control. For the same compound, the T/C [9] was 121 % of control.
With CCOC(=O)C(C)(C)Oc1ccc(N=[N+]=[N-])cc1 the T/C [10] was 100 % of control, the T/C [11] was 104 % of control and the T/C [12] was 109 % of control.
NC1=CC(=O)c2nc(-c3ccccc3N)ccc2C1=O was tested, and the T/C (dose: 100.0 mg/kg/injection, schedule: Q04DX003 (ip), vehicle: Klucel (hydroxypropylcellulose) (HPC)) was 109 % of control and the T/C (dose: 200.0 mg/kg/injection, schedule: Q04DX003 (ip), vehicle: Klucel (hydroxypropylcellulose) (HPC)) was 105 % of control.
Cn1c2ccccc2c(=O)c2cc(NC(=O)CCCCC(=O)Nc3ccc4c(c3)c(=O)c3ccccc3n4C)ccc21 was tested, and the T/C [10] was 101 % of control, the T/C [11] was 107 % of control and the T/C [12] was 101 % of control.
In the case of C[C@@H]1CC[C@@]2(OC1)O[C@H]1C[C@H]3[C@@H]4CC(=O)C5=CC(=O)CC[C@]5(C)[C@H]4CC[C@]3(C)[C@H]1[C@@H]2C, the T/C (dose: 2.25 mg/kg/injection, schedule: Q01DX005 (ip), vehicle: Klucel (hydroxypropylcellulose) (HPC)) was 101 % of control, the T/C (dose: 4.5 mg/kg/injection, schedule: Q01DX005 (ip), vehicle: Klucel (hydroxypropylcellulose) (HPC)) was 100 % of control and the T/C (dose: 9.0 mg/kg/injection, schedule: Q01DX005 (ip), vehicle: Klucel (hydroxypropylcellulose) (HPC)) was 97 % of control. The T/C (dose: 18.0 mg/kg/injection, schedule: Q01DX005 (ip), vehicle: Klucel (hydroxypropylcellulose) (HPC)) was 89 % of control and the T/C (dose: 36.0 mg/kg/injection, schedule: Q01DX005 (ip), vehicle: Klucel (hydroxypropylcellulose) (HPC)) was 88 % of control.
With CCn1c2ccccc2nc2cc3c(cc21)c(Cl)c(=O)c1ccccc13 the T/C [1] was 108 % of control, the T/C [2] was 104 % of control and the T/C [3] was 98 % of control.
CN(Cc1ccccc1)CC(CCC1OCCO1)(CCC1OCCO1)c1ccccc1 was tested, and the T/C [9] was 96 % of control and the T/C (dose: 100.0 mg/kg/injection, schedule: Q01DX009 (ip), vehicle: Klucel (hydroxypropylcellulose) (HPC)) was 91 % of control.
For COc1cccc2c1C(=O)c1c(O)c3c(c(O)c1C2=O)CC(O)(C(C)=O)CC3OC1CC(NC(=O)C(CCCCN)NC(=O)C(N)CCN)C(O)C(C)O1 (stereo unspecified), the T/C (dose: 2.5 mg/kg/injection, schedule: Q04DX003 (ip), vehicle: water) was 94 % of control, the T/C (dose: 5.0 mg/kg/injection, schedule: Q04DX003 (ip), vehicle: water) was 94 % of control and the T/C (dose: 10.0 mg/kg/injection, schedule: Q04DX003 (ip), vehicle: water) was 98 % of control. For the same compound, the T/C (dose: 20.0 mg/kg/injection, schedule: Q04DX003 (ip), vehicle: water) was 101 % of control, the T/C (dose: 40.0 mg/kg/injection, schedule: Q04DX003 (ip), vehicle: water) was 105 % of control and the T/C (dose: 80.0 mg/kg/injection, schedule: Q04DX003 (ip), vehicle: distilled water + Tween-80) was 96 % of control. For the same compound, the T/C (dose: 160.0 mg/kg/injection, schedule: Q04DX003 (ip), vehicle: distilled water + Tween-80) was 105 % of control and the T/C (dose: 320.0 mg/kg/injection, schedule: Q04DX003 (ip), vehicle: distilled water + Tween-80) was 105 % of control.
CCOC(=O)CC(=N)C(C#N)C(=O)OCC (stereo unspecified) was tested, and the T/C (dose: 6.25 mg/kg/injection, schedule: Q01DX009 (ip), vehicle: saline with Tween-80) was 101 % of control, the T/C (dose: 12.5 mg/kg/injection, schedule: Q01DX009 (ip), vehicle: saline with Tween-80) was 101 % of control and the T/C [8] was 99 % of control. The T/C [1] was 99 % of control.

Reference: PubChem BioAssay AID330 (DTP/NCI, 2004)
